Here are results for five molecules from patent publication US9138423B2, “Use of inhibitors of porphobilinogen deaminase in the treatment of congenital erythropoietic porphyria” (Asociación Centro de Investigación Cooperativa en …, priority 2010, dated 2015).

Assay [1] deals with porphobilinogen deaminase (PBGD) (Homo sapiens (Human), UniProt P08397). Nature of the assay: Enzymatic assay of porphobilinogen deaminase catalytic activity (Lineweaver-Burk, inhibition constants). The class given is biochemical. The conditions noted are these: for Ki: global data fitting of all values in presence of inhibitor, 37° C., pH 8.0, read-out: Ki (inhibition constant of the catalytic activity of the PBGD). As for the experimental part: Obtaining and purifying the enzyme: The enzyme is obtained and purified by following the method published by Millet O et al. (2009) Biochemistry 48: 454-461.
Chain of porphobilinogen deaminase (PBGD) (P08397 whole entry): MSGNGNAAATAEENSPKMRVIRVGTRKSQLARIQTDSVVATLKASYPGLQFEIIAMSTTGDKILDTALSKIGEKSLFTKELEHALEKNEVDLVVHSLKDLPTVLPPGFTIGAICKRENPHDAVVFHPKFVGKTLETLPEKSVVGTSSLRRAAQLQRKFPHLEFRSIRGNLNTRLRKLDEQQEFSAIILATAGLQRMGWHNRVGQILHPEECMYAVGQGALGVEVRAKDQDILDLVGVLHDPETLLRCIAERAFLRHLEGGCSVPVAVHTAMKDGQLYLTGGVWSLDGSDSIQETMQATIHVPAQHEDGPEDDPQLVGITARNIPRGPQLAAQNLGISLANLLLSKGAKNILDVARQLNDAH
Enzymatic assay: The assay is based on the method described by Jordan (Shoolingin-Jordan P M et al. (1997). Methods in enzymology 281: 327-336) with some modifications. 10 μL of porphobilinogen deaminase (PBGD) at a concentration of 150 μM in 48 μL of buffer (20 mM Tris-HCl pH 8.0, NaCl 150 mM) is preheated at 37° C. for two minutes. If the assay is performed in the presence of an inhibitor, the latter is added in dissolved form into the buffer. 25 μL of the porphobilinogen (PBG) substrate are then added, diluted to different concentrations (0.15, 0.3, 0.45, 0.6, 0.9, 1.2, 1.5, 1.8, 2.1, 2.4, 2.7, 3, 3.3, 3.9 mM) in the aforementioned buffer and are incubated at 37° C. for five minutes. A control assay containing a buffer without substrate (PBG) in the same proportions is performed at the same time. The enzymatic reaction is stopped by means of freezing the samples in liquid nitrogen. Then the mixture is incubated again with 6 μL of 25 mM uroporphyrinogen 3 synthase (U3S) at 37° C. for 30 minutes to transform the pre-uroporphyrinogen into uroporphyrinogen III. The reaction is again stopped by means of freezing in liquid nitrogen. Then the formed […] uroporphyrinogens are oxidized to uroporphyrins by means of adding 25 μL of I2/KI solution and incubation for 10 minutes in ice and darkness. The iodine excess is then bleached by adding 25 μL of saturated sodium metabisulfite solution. […] Finally, different dilutions of the supernatant in 0.1 M HCl are prepared to measure the change of absorbance at 405 nm with respect to the control sample.
Calculation of inhibition constants: Inhibition constants have been calculated from the global data fitting of all values in presence of inhibitor according to the methodologies disclosed in the prior art (Structure and mechanism in protein Science, Alan Fersht, 1999, Ed. Freeman and Co. (New York), Pag. 105-115).

Assay [2] deals with Escherichia coli porphobilinogen deaminase (Escherichia coli (strain K12), UniProt P06983). Conditions: Escherichia coli enzyme; cited from earlier work.
Chain of Escherichia coli porphobilinogen deaminase (P06983 whole entry): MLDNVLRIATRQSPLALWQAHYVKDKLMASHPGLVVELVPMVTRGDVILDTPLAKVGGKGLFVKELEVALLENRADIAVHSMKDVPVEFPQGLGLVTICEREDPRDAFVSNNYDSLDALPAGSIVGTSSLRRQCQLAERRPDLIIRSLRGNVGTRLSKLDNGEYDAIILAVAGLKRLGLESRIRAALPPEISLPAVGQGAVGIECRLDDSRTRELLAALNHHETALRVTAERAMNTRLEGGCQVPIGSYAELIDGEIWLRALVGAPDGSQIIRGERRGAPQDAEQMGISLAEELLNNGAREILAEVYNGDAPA
Assay [3] has as its target porphobilinogen deaminase of Arabidopsis thaliana (Arabidopsis thaliana (Mouse-ear cress), UniProt Q43316). Conditions: Arabidopsis thaliana enzyme; non-specific chemical modification; cited from earlier work.

What is called Ki is the equilibrium dissociation constant of an inhibitor or competing ligand from its target.

Molecules are shown by their SMILES.

Chain of porphobilinogen deaminase of Arabidopsis thaliana (Q43316 63-382): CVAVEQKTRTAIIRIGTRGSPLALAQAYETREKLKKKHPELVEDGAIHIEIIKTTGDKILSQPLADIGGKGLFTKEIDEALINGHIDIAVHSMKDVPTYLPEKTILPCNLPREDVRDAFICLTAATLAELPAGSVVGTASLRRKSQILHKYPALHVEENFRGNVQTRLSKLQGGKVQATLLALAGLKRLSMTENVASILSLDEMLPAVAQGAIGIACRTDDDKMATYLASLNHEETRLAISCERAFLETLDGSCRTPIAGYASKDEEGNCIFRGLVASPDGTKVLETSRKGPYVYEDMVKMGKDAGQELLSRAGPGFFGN

For `Cc1c[nH]c(C)c1` [2,4-CH3-PYR, 2,4-dimethyl-1H-pyrrole], the Ki in assay [1] stood at 6 µM.
Still for that read-out and setting: as for `Cc1ccc(C)[nH]1` [2,5-CH3-PYR, 2,5-dimethyl-1H-pyrrole], the figure is 3 µM.
For `N[C@H](Cc1c[nH]c2ccccc12)C(=O)O` [DTRP, 2R-amino-3-(1H-indol-3-yl) propanoic acid], the “type of inhibition of the catalytic activity of PBGD (Lineweaver-Burk plot)” value in assay [1] (increasing amounts of inhibitor, change in slope with same intercept) is listed as “competitive inhibition”.
Take `CCN1C(=O)C=CC1=O` [N-ethylmaleimide]: the “effect on catalytic activity of porphobilinogen deaminase” value is recorded as “strongly deactivates” in assay [2] and “low inhibition” in assay [3].
Turning to `OCCS` [2-mercaptoethanol], in assay [3], the “effect on catalytic activity of porphobilinogen deaminase” value is “significantly alter the catalytic activity”.
